In brackets after ≈: the same amount, converted by molar mass.

Among the data in ChEMBL document CHEMBL1649198, “Efflux unbalance in Pseudomonas aeruginosa isolates from cystic fibrosis patients” (2009) are MIC values, retold here.

The test system of one assay is Pseudomonas aeruginosa. The experiment in a line: Antimicrobial activity against Pseudomonas aeruginosa PAO1 by twofold macrodilution method. Type of assay: functional.
Take GENTAMICIN: the MIC (commonly the lowest concentration found to suppress growth) came out at 1 µg/mL.

Another assay deals with Pseudomonas aeruginosa. The experiment in a line: Antimicrobial activity against ampicillin- and ticarcillin-resistant Pseudomonas aeruginosa FE60 mutant transformed with pAGH97 carrying mexXY F1018L mutant by twofold macrodilution method. Type of assay: functional.
Regarding `CO/N=C(\C(=O)N[C@@H]1C(=O)N2C(C(=O)[O-])=C(C[N+]3(C)CCCC3)CS[C@H]12)c1csc(N)n1`, the minimal inhibitory concentration (MIC) stood at 16 µg/mL (≈ 33.3 µM).
The same measure, in the same setting: the value for GENTAMICIN was 2 µg/mL.

The subject of a further assay is Pseudomonas aeruginosa. The experiment in a line: Antimicrobial activity against ampicillin- and ticarcillin-resistant Pseudomonas aeruginosa FE60 mutant transformed with pAGH97 carrying mexXY operon by twofold macrodilution method. Type of assay: functional.
`CO/N=C(\C(=O)N[C@@H]1C(=O)N2C(C(=O)[O-])=C(C[N+]3(C)CCCC3)CS[C@H]12)c1csc(N)n1` displayed an MIC of 8 µg/mL (≈ 16.6 µM).
The same measure, in the same setting: the value for GENTAMICIN was 1 µg/mL.

Another assay has as its system Pseudomonas aeruginosa. The assay is described as follows: Antimicrobial activity against Pseudomonas aeruginosa isolate 2933 obtained from cystic fibrosis patient by disk diffusion method. Type of assay: functional. In general terms: Agar diffusion results depend on both activity and mobility in agar.
For `CO/N=C(\C(=O)N[C@@H]1C(=O)N2C(C(=O)[O-])=C(C[N+]3(C)CCCC3)CS[C@H]12)c1csc(N)n1`, the lowest concentration to inhibit growth (MIC) was 16 µg/mL (≈ 33.3 µM).
For the molecule GENTAMICIN, the lowest concentration to inhibit growth (MIC) was 16 µg/mL.

The test system of the next assay is Pseudomonas aeruginosa. The assay is described as follows: Antimicrobial activity against Pseudomonas aeruginosa isolate 2858 obtained from cystic fibrosis patient by disk diffusion method. Type of assay: functional.
In the case of `CO/N=C(\C(=O)N[C@@H]1C(=O)N2C(C(=O)[O-])=C(C[N+]3(C)CCCC3)CS[C@H]12)c1csc(N)n1`, the MIC was 4 µg/mL (≈ 8.32 µM).
For GENTAMICIN, inhibition of growth (MIC) required 4 µg/mL.

Another assay concerns Pseudomonas aeruginosa. The experiment in a line: Antimicrobial activity against Pseudomonas aeruginosa isolate 2729 obtained from cystic fibrosis patient by disk diffusion method. In kind it is functional.
In the case of `CO/N=C(\C(=O)N[C@@H]1C(=O)N2C(C(=O)[O-])=C(C[N+]3(C)CCCC3)CS[C@H]12)c1csc(N)n1`, the MIC stood at 8 µg/mL (≈ 16.6 µM).
The molecule GENTAMICIN registered an MIC of 8 µg/mL.

The subject of the next assay is Pseudomonas aeruginosa. The experiment in a line: Antimicrobial activity against Pseudomonas aeruginosa mutGR1 overexpressing mexXY mutant by twofold macrodilution method. In kind it is functional.
With `CO/N=C(\C(=O)N[C@@H]1C(=O)N2C(C(=O)[O-])=C(C[N+]3(C)CCCC3)CS[C@H]12)c1csc(N)n1`, the minimum inhibitory concentration (MIC) amounted to 8 µg/mL (≈ 16.6 µM).
On the same count and under the same terms, the value for GENTAMICIN was 2 µg/mL.

A further assay has as its system Pseudomonas aeruginosa. The experiment in a line: Antimicrobial activity against mexXY operon inactivated Pseudomonas aeruginosa PAO1 by twofold macrodilution method. In kind it is functional.
As to GENTAMICIN, inhibition of growth (MIC) required 0.125 µg/mL.

Another assay has as its system Pseudomonas aeruginosa. The assay is described as follows: Antimicrobial activity against Pseudomonas aeruginosa isolate 3020S obtained from cystic fibrosis patient by disk diffusion method. In kind it is functional.
GENTAMICIN registered an MIC of 2 µg/mL.

A further assay has as its system Pseudomonas aeruginosa. The experiment in a line: Antimicrobial activity against Pseudomonas aeruginosa isolate 2804 obtained from cystic fibrosis patient by disk diffusion method. Type of assay: functional.
As for `CO/N=C(\C(=O)N[C@@H]1C(=O)N2C(C(=O)[O-])=C(C[N+]3(C)CCCC3)CS[C@H]12)c1csc(N)n1`, inhibition of growth (MIC) required 32 µg/mL (≈ 66.6 µM).
GENTAMICIN yielded an MIC of 64 µg/mL.

The subject of a further assay is Pseudomonas aeruginosa. The assay is described as follows: Antimicrobial activity against Pseudomonas aeruginosa isolate 2721 obtained from cystic fibrosis patient by agar dilution method. On the technique in general: In agar dilution, organisms are placed on agar that contains the substance at set levels.
`CO/N=C(\C(=O)N[C@@H]1C(=O)N2C(C(=O)[O-])=C(C[N+]3(C)CCCC3)CS[C@H]12)c1csc(N)n1` had an MIC of 8 µg/mL (≈ 16.6 µM).

The next assay relates to Pseudomonas aeruginosa. The assay is described as follows: Antimicrobial activity against Pseudomonas aeruginosa isolate 2715 obtained from cystic fibrosis patient by agar dilution method.
Consider `CO/N=C(\C(=O)N[C@@H]1C(=O)N2C(C(=O)[O-])=C(C[N+]3(C)CCCC3)CS[C@H]12)c1csc(N)n1`, for which the MIC worked out at 16 µg/mL (≈ 33.3 µM).

In a further assay the test system is Pseudomonas aeruginosa. The assay is described as follows: Antimicrobial activity against Pseudomonas aeruginosa isolate 2716 obtained from cystic fibrosis patient by agar dilution method.
In turn, `CO/N=C(\C(=O)N[C@@H]1C(=O)N2C(C(=O)[O-])=C(C[N+]3(C)CCCC3)CS[C@H]12)c1csc(N)n1` yielded an MIC of 8 µg/mL (≈ 16.6 µM).

The subject of another assay is Pseudomonas aeruginosa. The experiment in a line: Antimicrobial activity against Pseudomonas aeruginosa isolate 3066 obtained from cystic fibrosis patient by disk diffusion method. In kind it is functional.
Consider `CO/N=C(\C(=O)N[C@@H]1C(=O)N2C(C(=O)[O-])=C(C[N+]3(C)CCCC3)CS[C@H]12)c1csc(N)n1`, for which the minimal inhibitory concentration (MIC) was 32 µg/mL (≈ 66.6 µM).
Same read-out and setting: for GENTAMICIN the value was 64 µg/mL.

A further assay has as its system Pseudomonas aeruginosa. The assay is described as follows: Antimicrobial activity against Pseudomonas aeruginosa isolate 615R obtained from cystic fibrosis patient by disk diffusion method. Type of assay: functional.
With `CO/N=C(\C(=O)N[C@@H]1C(=O)N2C(C(=O)[O-])=C(C[N+]3(C)CCCC3)CS[C@H]12)c1csc(N)n1`, 4 µg/mL (≈ 8.32 µM) was the least that counted as inhibitory (MIC).
The same measure, in the same setting: the value for GENTAMICIN was 8 µg/mL.

For the next assay, the system named is Pseudomonas aeruginosa. The experiment in a line: Antimicrobial activity against ampicillin- and ticarcillin-resistant Pseudomonas aeruginosa FE60 mutant transformed with pAGH97 carrying mexXY F29S mutant by twofold macrodilution method. In kind it is functional.
For the molecule `CO/N=C(\C(=O)N[C@@H]1C(=O)N2C(C(=O)[O-])=C(C[N+]3(C)CCCC3)CS[C@H]12)c1csc(N)n1`, inhibition of growth (MIC) required 8 µg/mL (≈ 16.6 µM).
GENTAMICIN registered an MIC of 1 µg/mL.

Another assay concerns Pseudomonas aeruginosa. The experiment in a line: Antimicrobial activity against Pseudomonas aeruginosa isolate 3020R obtained from cystic fibrosis patient by agar dilution method.
`CO/N=C(\C(=O)N[C@@H]1C(=O)N2C(C(=O)[O-])=C(C[N+]3(C)CCCC3)CS[C@H]12)c1csc(N)n1` showed an MIC of 4 µg/mL (≈ 8.32 µM).

A further assay concerns Pseudomonas aeruginosa. The assay is described as follows: Antimicrobial activity against mexXY operon inactivated Pseudomonas aeruginosa isolate 2858 obtained from cystic fibrosis patient by disk diffusion method. Type of assay: functional, organism-based.
Molecule GENTAMICIN came in with an MIC of 0.125 µg/mL.

The subject of a further assay is Pseudomonas aeruginosa. The experiment in a line: Antimicrobial activity against mexXY operon inactivated Pseudomonas aeruginosa isolate 615S obtained from cystic fibrosis patient by disk diffusion method. In kind it is functional, organism-based.
As to GENTAMICIN, the MIC was found to be 0.125 µg/mL.

For a further assay, the system named is Pseudomonas aeruginosa. The experiment in a line: Antimicrobial activity against Pseudomonas aeruginosa isolate 615S obtained from cystic fibrosis patient by disk diffusion method. In kind it is functional.
Take GENTAMICIN: 1 µg/mL was the least that counted as inhibitory (MIC).

The subject of the next assay is Pseudomonas aeruginosa. The experiment in a line: Antimicrobial activity against mexXY deficient ampicillin- and ticarcillin-resistant Pseudomonas aeruginosa FE60 mutant by twofold macrodilution method. Type of assay: functional.
For GENTAMICIN, the lowest concentration to inhibit growth (MIC) was 0.125 µg/mL.

The subject of the next assay is Pseudomonas aeruginosa. The experiment in a line: Antimicrobial activity against Pseudomonas aeruginosa isolate 2998 obtained from cystic fibrosis patient by agar dilution method.
`CO/N=C(\C(=O)N[C@@H]1C(=O)N2C(C(=O)[O-])=C(C[N+]3(C)CCCC3)CS[C@H]12)c1csc(N)n1` displayed an MIC of 8 µg/mL (≈ 16.6 µM).
